Assays:
[1] = biological target: Sodium-dependent serotonin transporter (Homo sapiens, UniProt P31645)
[2] = biological target: T1, D(2) dopamine receptor (Homo sapiens, UniProt P14416); assay: Displacement of [3H]spiperone form human dopamine D2 receptor by liquid scintillation counting
[3] = biological target: T2, Adrenergic receptor alpha-1 (Homo sapiens, UniProt P35348+P25100+P35368); assay: Binding affinity to human alpha1 adrenergic receptor by radioligand displacement assay
T2 sequence (P35348 whole entry): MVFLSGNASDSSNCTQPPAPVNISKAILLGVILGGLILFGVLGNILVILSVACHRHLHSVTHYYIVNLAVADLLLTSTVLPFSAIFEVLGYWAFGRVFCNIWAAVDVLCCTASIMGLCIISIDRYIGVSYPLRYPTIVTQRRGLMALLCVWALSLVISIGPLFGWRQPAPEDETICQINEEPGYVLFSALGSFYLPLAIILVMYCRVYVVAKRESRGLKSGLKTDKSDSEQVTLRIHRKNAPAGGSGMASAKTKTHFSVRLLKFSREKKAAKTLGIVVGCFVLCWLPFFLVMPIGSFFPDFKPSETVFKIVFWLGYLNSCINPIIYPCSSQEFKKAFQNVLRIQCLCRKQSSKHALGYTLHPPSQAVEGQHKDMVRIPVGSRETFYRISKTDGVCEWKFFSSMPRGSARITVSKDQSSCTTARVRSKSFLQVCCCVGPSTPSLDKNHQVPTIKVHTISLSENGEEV
T2 sequence (P25100 whole entry): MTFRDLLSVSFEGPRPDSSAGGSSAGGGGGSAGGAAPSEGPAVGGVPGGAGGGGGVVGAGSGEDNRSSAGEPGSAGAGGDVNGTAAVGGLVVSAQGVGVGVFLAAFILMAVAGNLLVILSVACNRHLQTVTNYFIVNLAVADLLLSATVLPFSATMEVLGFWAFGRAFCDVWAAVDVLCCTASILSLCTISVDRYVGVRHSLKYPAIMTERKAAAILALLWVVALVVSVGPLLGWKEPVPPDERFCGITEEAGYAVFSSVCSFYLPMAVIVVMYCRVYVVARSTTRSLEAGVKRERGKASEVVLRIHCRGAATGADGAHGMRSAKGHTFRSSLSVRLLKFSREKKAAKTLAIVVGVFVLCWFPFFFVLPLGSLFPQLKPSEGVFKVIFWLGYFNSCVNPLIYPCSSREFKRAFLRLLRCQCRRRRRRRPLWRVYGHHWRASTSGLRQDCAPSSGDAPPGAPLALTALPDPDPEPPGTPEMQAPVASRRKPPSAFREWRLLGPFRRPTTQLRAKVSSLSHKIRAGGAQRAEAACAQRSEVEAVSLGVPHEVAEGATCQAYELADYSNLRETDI
T2 sequence (P35368 whole entry): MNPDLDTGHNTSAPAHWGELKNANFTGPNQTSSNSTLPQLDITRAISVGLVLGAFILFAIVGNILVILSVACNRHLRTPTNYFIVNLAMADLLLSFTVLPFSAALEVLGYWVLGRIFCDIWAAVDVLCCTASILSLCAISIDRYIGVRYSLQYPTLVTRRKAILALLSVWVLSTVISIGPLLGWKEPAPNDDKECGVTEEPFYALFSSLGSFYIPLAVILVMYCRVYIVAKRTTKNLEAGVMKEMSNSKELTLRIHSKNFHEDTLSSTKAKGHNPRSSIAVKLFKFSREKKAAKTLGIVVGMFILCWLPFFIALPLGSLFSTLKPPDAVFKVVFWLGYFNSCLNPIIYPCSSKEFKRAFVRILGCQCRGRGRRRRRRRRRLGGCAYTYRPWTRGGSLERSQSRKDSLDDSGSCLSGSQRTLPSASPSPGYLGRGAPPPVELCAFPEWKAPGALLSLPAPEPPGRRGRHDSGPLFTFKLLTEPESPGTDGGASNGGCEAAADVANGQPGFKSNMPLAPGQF

[4] = biological target: T1, D(2) dopamine receptor; assay: Ratio of compound to quinpirole partial agonist activity at human dopamine D2 receptor; type: functional

T1 sequence (P14416 whole entry): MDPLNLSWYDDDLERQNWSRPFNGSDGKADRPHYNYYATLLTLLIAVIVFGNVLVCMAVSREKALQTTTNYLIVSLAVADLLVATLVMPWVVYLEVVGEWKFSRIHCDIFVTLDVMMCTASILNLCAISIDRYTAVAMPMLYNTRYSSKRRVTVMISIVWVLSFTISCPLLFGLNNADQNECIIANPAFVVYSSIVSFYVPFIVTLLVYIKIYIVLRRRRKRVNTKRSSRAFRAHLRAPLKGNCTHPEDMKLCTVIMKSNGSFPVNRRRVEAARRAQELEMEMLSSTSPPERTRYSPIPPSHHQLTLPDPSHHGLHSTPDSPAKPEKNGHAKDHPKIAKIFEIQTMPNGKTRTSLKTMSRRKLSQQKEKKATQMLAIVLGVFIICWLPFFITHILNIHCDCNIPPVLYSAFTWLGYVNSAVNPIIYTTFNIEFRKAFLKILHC
Sequence of Sodium-dependent serotonin transporter (P31645 whole entry): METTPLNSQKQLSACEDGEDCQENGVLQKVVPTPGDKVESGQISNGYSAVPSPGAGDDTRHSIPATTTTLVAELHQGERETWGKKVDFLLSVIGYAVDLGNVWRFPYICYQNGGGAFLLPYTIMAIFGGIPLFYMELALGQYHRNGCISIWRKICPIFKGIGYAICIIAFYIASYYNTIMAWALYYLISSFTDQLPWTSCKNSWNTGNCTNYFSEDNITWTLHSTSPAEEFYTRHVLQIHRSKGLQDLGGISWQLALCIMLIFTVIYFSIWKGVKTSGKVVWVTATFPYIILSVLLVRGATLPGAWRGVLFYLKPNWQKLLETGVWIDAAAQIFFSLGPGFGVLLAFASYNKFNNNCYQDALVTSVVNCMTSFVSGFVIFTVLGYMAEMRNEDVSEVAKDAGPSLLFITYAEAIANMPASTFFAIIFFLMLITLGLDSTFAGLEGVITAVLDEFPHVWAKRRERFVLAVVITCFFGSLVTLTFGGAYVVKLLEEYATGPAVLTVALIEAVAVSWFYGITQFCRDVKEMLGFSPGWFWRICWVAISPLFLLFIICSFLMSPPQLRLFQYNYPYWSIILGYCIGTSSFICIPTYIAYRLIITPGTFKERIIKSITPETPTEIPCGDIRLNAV

**Q.** Which Ki [1] does the source give for `O=C1CCc2ccc(CC3CCN(C[C@@H]4COc5c(ccc6c5CC(=O)N6)O4)CC3)cc2N1` here?
**A.** 1.9 nM

**Q.** And the Ki [2]?
**A.** 8 nM

**Q.** And the Ki [3]?
**A.** 2 nM

**Q.** What about the Ratio [4] of the same molecule?
**A.** 0.38

**Q.** Which results are given for `CS(=O)(=O)Nc1cc(OCCN2CCC(Oc3ccc4c(c3)NC(=O)CC4)CC2)ccc1F`?
**A.** Ki [1]: 30 nM; Ki [2]: 9 nM; Ki [3]: 354 nM; Ratio [4]: < 0.1

**Q.** Which results are given for `O=C1CCc2ccc(OCCN3CCN(c4cccc5[nH]c(=O)oc45)CC3)cc2N1`?
**A.** Ki [1]: 538 nM; Ki [2]: 8.6 nM

**Q.** For `O=C1CCc2ccc(OC3CCN(C[C@@H]4COc5c(ccc6c5CC(=O)N6)O4)CC3)cc2N1`, which Ki [1] is on record?
**A.** 20 nM

**Q.** What about the Ki [2] of the same molecule?
**A.** 2.5 nM

**Q.** And the Ki [3]?
**A.** 2 nM

**Q.** What about the Ratio [4] of the same molecule?
**A.** 0.41

**Q.** Which results are given for `CS(=O)(=O)Nc1cc(OCCN2CC3CCC(C2)C3Cc2ccc3c(c2)NC(=O)CC3)ccc1F` (centres undefined)?
**A.** Ki [1]: 5 nM; Ki [2]: 7 nM; Ki [3]: 1100 nM; Ratio [4]: 0.85

**Q.** Which results are given for `CS(=O)(=O)Nc1cccc(OCCN2CC3CCC(C2)C3Cc2ccc3c(c2)NC(=O)CC3)c1` (centres undefined)?
**A.** Ki [1]: 1.7 nM; Ki [2]: 11 nM; Ki [3]: > 3300 nM; Ratio [4]: 0.25

**Q.** How did the Ki [1] turn out when `O=C1CCc2ccc(OCCCCN3CCN(c4cccc5[nH]c(=O)oc45)CC3)cc2N1` was run?
**A.** 94 nM

**Q.** And the Ki [2]?
**A.** 8.3 nM

**Q.** What does the source list for `CS(=O)(=O)Nc1cccc(OCCN2CCC(Cc3ccc4c(c3)NC(=O)CC4)CC2)c1`?
**A.** Ki [1]: 19 nM; Ki [2]: 9 nM; Ratio [4]: < 0.1

**Q.** With `CS(=O)(=O)Nc1cccc(OCCN2CCC(Oc3ccc4c(c3)NC(=O)CC4)CC2)c1` as the molecule, how does the Ki [1] read?
**A.** 22 nM

**Q.** And the Ki [2]?
**A.** 18 nM

**Q.** What about the Ki [3] of the same molecule?
**A.** 91 nM

**Q.** What about the Ratio [4] of the same molecule?
**A.** 0.21

**Q.** Which results are given for `O=C1CCc2ccc(CC3CC4CCC(C3)N4C[C@@H]3COc4c(ccc5c4CC(=O)N5)O3)cc2N1` (some centres undefined)?
**A.** Ki [1]: 0.26 nM; Ki [2]: 16 nM; Ki [3]: 8 nM; Ratio [4]: < 0.1

**Q.** With `O=C1CCc2ccc(CC3C4CCC3CN(C[C@@H]3COc5c(ccc6c5CC(=O)N6)O3)C4)cc2N1` (some centres undefined) as the molecule, how does the Ki [1] read?
**A.** 1.5 nM

**Q.** What about the Ki [2] of the same molecule?
**A.** 6.3 nM

**Q.** What about the Ki [3] of the same molecule?
**A.** 46 nM

**Q.** And the Ratio [4]?
**A.** 0.4

**Q.** What does the source list for `O=C1CCc2ccc(OCCCN3CCN(c4cccc5[nH]c(=O)oc45)CC3)cc2N1`?
**A.** Ki [1]: 93 nM; Ki [2]: 8.6 nM

**Q.** Which results are given for `CS(=O)(=O)Nc1cc(OCCN2CCC(Cc3ccc4c(c3)NC(=O)CC4)CC2)ccc1F`?
**A.** Ki [1]: 20 nM; Ki [2]: 19 nM; Ratio [4]: < 0.1
